Here are results for 5 compounds from ChEMBL document CHEMBL3120105, “Identification of weak points of hepatitis C virus NS3 protease inhibitors using surface plasmon resonance biosensor-based interaction kinetic analysis and genetic variants” (J Med Chem, 2014).

Where a SMILES comes first, the peptide text is derived from it. [ ]: non-standard residue; d: D form. dGla = N[C@H](CC(C(=O)O)C(=O)O)C(=O)O; Cha = N[C@@H](CC1CCCCC1)C(=O)O

The nature of test [1]: Inhibition of Hepatitis C virus genotype 1b NS3 protease domain assessed as overall/observed affinity by surface plasmon resonance biosensor-based interaction kinetic analysis. The arrangement: species or system Hepatitis C virus subtype 1b. A general note: SPR reads the build-up and loss of mass on a sensor chip optically.
The nature of test [2]: Inhibition of Hepatitis C virus genotype 3a full-length NS3 protease assessed as overall/observed affinity by surface plasmon resonance biosensor-based interaction kinetic analysis. The arrangement: species or system Hepatitis C virus subtype 3a.
The nature of test [3]: Inhibition of Hepatitis C virus genotype 1b NS3 protease domain assessed as equilibrium dissociation constant by surface plasmon resonance biosensor-based interaction kinetic analysis. More on the design: species or system Hepatitis C virus subtype 1b.
A short description of test [4]: Inhibition of Hepatitis C virus genotype 1a full-length NS3/NS4A protease assessed as overall/observed affinity by surface plasmon resonance biosensor-based interaction kinetic analysis. The arrangement: species or system Hepatitis C virus subtype 1a.
Test [5] in a line: Inhibition of Hepatitis C virus genotype 1a full-length NS3 protease assessed as overall/observed affinity by surface plasmon resonance biosensor-based interaction kinetic analysis. The arrangement: species or system Hepatitis C virus subtype 1a.
Test [6] in a line: Inhibition of Hepatitis C virus genotype 1a full-length NS3 protease assessed as equilibrium dissociation constant by surface plasmon resonance biosensor-based interaction kinetic analysis. More on the design: species or system Hepatitis C virus subtype 1a.
The nature of test [7]: Inhibition of Hepatitis C virus genotype 1b full-length NS3/NS4A protease assessed as equilibrium dissociation constant by surface plasmon resonance biosensor-based interaction kinetic analysis. More on the design: species or system Hepatitis C virus subtype 1b.
A short description of test [8]: Inhibition of Hepatitis C virus genotype 3a full-length NS3 protease assessed as equilibrium dissociation constant by surface plasmon resonance biosensor-based interaction kinetic analysis. More on the design: species or system Hepatitis C virus subtype 3a.
Test [9] is described as follows: Inhibition of Hepatitis C virus genotype 1b full-length NS3/NS4A protease assessed as overall/observed affinity by surface plasmon resonance biosensor-based interaction kinetic analysis. More on the design: species or system Hepatitis C virus subtype 1b.
Test [10] in a line: Inhibition of Hepatitis C virus genotype 1a full-length NS3/NS4A protease assessed as equilibrium dissociation constant by surface plasmon resonance biosensor-based interaction kinetic analysis. More on the design: species or system Hepatitis C virus subtype 1a.
The nature of test [11]: Inhibition of Hepatitis C virus genotype 1b full-length NS3 protease assessed as equilibrium dissociation constant by surface plasmon resonance biosensor-based interaction kinetic analysis. The arrangement: species or system Hepatitis C virus subtype 1b.
Test [12] can be described thus: Inhibition of Hepatitis C virus genotype 1b full-length NS3 protease assessed as overall/observed affinity by surface plasmon resonance biosensor-based interaction kinetic analysis. More on the design: species or system Hepatitis C virus subtype 1b.

As to `CC[C@H](C)[C@H](NC(=O)[C@H](CC(C)C)NC(=O)[C@@H](CC(C(=O)O)C(=O)O)NC(=O)[C@H](CC(=O)O)NC(C)=O)C(=O)N[C@@H](CC1CCCCC1)C(=O)N[C@@H](CS)C(=O)O` (Ac-D[dGla]LI[Cha]C-OH), the Kd in [1] was found to be 3300 nM; in test [2] it was 870 nM; in [3], 7200 nM; in [4] it was 17000 nM; in test [5], 200 nM; in test [6] it was 3900 nM. The Kd is 5800 nM in [7]; 1400 nM in test [8]; 2000 nM in test [9]; 36000 nM in test [10]; 7200 nM in test [11]; 5600 nM in test [12].

As to `CC(C)(C)NC(=O)N[C@H](C(=O)N1C[C@H]2[C@@H]([C@H]1C(=O)NC(CC1CCC1)C(=O)C(N)=O)C2(C)C)C(C)(C)C` (stereo partly specified) [BOCEPREVIR], the Kd came out at 3200 nM in [1]; 3.9 nM in test [2]; 16000 nM in [3]; 7700 nM in [7]; 1700 nM in [8]; 38 nM in test [9]. Further, the Kd in [11] stood at 16000 nM; in [12], 90 nM.

Consider `COc1ccc2c(O[C@@H]3C[C@H]4C(=O)N[C@]5(C(=O)O)C[C@H]5/C=C\CCCCC[C@H](NC(=O)OC5CCCC5)C(=O)N4C3)cc(-c3csc(NC(C)C)n3)nc2c1` [CILUPREVIR], for which the Kd in test [1] is 2.5 nM; in test [2] it was 160 nM; in test [3], 7.3 nM; in test [4], 2.1 nM; in test [5] it was 1.3 nM; in [6], 3 nM. The Kd in test [7] is 71 nM; in test [8] it was 3300 nM; in test [9], 71 nM; in test [10], 2.1 nM; in [11], 220 nM; in [12], 67 nM.

As to `CC(C)(C)OC(=O)N[C@H]1CCCCC/C=C\[C@@H]2C[C@@]2(C(=O)NS(=O)(=O)C2CC2)NC(=O)[C@@H]2C[C@@H](OC(=O)N3Cc4cccc(F)c4C3)CN2C1=O` [DANOPREVIR], the Kd in test [1] was found to be 10000 nM; in [2], 0.52 nM; in [3], 19000 nM; in test [4], 1.6 nM; in test [5] it was 0.13 nM; in test [6], 2.5 nM. Also, the equilibrium dissociation constant (Kd) was 6.5 nM in test [7]; 21 nM in test [8]; 6.5 nM in test [9]; 4 nM in test [10]; 1.6 nM in test [11]; 1.6 nM in [12].

As to `CCC[C@H](NC(=O)[C@@H]1[C@H]2CCC[C@H]2CN1C(=O)[C@@H](NC(=O)[C@@H](NC(=O)c1cnccn1)C1CCCCC1)C(C)(C)C)C(=O)C(=O)NC1CC1` [TELAPREVIR], the Kd stood at 3000 nM in [1]; 1000 nM in test [2]; 4100 nM in test [3]; 17 nM in [4]; 340 nM in test [5]; 2000 nM in test [6]. Further, the Kd was 67 nM in test [7]; 66000 nM in test [8]; 66 nM in [9]; 14000 nM in test [10]; 8.6 nM in test [11]; 8.5 nM in test [12].

The term Kd denotes the equilibrium constant for the complex coming apart.
